Data from article PMC7614683, “A small molecule PI3Kα activator for cardioprotection and neuroregeneration” (Nature, 2023).
Like-named read-outs stand apart in the source and are kept apart here.

Columns and labels:
Test in all cases: SelectScreen Z-LYTE kinase activity assay (SI Table 6)
Assay type in all cases: biochemical
[1] = target: protein kinases of the Z-LYTE panel (Homo sapiens, UniProt P00519)
Method in brief: (§1)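 Single-point profiling, 1 μM 1938; LanthaScreen binding, Adapta or Z-LYTE read-outs; 133 protein + 7 lipid kinases.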

[2] = target: T1, protein kinases of the Z-LYTE panel (Homo sapiens, UniProt P43403)
T1 sequence (P43403 1-619): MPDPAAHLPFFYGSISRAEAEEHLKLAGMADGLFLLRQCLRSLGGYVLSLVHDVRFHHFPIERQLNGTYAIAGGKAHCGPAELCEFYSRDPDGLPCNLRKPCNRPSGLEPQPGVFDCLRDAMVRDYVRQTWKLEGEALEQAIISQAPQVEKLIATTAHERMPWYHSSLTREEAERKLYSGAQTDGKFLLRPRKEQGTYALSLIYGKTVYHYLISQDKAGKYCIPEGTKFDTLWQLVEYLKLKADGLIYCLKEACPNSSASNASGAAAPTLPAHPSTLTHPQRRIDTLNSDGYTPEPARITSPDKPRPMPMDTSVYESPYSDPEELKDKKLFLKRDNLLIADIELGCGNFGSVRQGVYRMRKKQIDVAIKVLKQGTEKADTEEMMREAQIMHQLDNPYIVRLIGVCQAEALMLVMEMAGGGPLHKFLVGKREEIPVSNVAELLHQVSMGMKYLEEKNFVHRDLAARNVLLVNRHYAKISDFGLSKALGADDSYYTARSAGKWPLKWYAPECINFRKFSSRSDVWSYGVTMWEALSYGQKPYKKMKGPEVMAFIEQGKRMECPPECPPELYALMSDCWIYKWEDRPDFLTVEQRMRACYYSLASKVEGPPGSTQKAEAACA
Method in brief: as §1

[3] = target: protein kinases of the Z-LYTE panel (Homo sapiens, UniProt P43405)
Method in brief: as §1

[4] = target: protein kinases of the Z-LYTE panel (Homo sapiens, UniProt Q16288)
Method in brief: as §1

[5] = target: protein kinases of the Z-LYTE panel (Homo sapiens, UniProt Q8N4C8)
Method in brief: as §1

[6] = target: protein kinases of the Z-LYTE panel (Homo sapiens, UniProt Q96GD4)
Method in brief: as §1

Chain of protein kinases of the Z-LYTE panel (Homo sapiens, UniProt Q16288) (Q16288 32-839): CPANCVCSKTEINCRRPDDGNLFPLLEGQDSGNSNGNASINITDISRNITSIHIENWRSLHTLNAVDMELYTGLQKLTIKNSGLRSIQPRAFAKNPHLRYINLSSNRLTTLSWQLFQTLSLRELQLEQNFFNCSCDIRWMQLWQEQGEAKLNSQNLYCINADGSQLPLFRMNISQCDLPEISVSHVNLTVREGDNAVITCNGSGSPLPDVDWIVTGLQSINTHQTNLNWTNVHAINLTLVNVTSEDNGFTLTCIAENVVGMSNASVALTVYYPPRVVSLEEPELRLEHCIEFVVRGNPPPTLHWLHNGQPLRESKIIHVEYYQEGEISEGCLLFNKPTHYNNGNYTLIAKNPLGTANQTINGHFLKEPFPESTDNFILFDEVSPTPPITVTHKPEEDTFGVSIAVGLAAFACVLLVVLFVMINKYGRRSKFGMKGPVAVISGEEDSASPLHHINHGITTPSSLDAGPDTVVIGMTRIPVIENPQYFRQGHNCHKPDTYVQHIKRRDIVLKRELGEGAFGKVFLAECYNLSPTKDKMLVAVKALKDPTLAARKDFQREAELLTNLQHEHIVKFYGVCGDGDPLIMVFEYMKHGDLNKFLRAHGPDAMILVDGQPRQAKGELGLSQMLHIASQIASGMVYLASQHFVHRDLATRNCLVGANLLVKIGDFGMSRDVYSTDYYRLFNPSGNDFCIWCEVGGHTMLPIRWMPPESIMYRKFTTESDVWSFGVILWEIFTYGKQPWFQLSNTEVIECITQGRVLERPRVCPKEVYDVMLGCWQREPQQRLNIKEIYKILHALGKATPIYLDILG
Chain of protein kinases of the Z-LYTE panel (Homo sapiens, UniProt P00519) (P00519 whole entry): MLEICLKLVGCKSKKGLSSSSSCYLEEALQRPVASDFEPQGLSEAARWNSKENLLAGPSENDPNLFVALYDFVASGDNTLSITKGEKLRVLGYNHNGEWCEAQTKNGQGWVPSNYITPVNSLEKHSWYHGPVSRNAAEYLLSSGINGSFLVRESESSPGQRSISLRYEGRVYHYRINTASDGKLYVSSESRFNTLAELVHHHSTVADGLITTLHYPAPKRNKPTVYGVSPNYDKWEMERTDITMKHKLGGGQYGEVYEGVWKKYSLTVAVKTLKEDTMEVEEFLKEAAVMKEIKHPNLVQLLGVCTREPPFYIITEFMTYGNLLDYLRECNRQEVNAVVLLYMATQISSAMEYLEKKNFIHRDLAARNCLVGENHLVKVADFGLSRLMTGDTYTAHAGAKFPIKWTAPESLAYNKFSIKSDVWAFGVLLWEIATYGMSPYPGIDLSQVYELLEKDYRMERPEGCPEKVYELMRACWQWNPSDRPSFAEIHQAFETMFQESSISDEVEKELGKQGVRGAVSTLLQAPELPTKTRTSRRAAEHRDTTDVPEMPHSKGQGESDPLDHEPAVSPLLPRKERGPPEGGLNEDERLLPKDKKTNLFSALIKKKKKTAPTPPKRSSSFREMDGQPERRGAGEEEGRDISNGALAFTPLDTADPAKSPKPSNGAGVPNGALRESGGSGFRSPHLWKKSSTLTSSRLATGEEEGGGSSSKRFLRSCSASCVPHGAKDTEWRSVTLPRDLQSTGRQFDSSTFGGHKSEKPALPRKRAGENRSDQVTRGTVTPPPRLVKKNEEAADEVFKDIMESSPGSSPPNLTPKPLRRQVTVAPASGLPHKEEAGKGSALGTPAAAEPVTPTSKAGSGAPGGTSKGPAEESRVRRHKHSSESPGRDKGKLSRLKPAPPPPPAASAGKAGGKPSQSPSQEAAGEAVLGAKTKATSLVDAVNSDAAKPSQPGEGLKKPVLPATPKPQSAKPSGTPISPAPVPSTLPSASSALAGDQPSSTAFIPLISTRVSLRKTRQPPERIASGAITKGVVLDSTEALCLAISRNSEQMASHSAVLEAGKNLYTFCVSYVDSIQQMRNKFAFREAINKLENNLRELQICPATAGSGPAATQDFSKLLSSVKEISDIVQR
Chain of protein kinases of the Z-LYTE panel (Homo sapiens, UniProt Q96GD4) (Q96GD4 whole entry): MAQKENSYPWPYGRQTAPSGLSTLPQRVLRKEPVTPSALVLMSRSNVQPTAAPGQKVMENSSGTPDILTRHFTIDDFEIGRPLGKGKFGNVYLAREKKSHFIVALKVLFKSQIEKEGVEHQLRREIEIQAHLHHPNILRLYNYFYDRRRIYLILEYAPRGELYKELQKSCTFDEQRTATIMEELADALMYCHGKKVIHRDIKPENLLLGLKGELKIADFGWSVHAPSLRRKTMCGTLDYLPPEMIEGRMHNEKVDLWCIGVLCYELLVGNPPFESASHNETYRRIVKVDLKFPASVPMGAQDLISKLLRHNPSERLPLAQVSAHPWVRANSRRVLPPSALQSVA
Chain of protein kinases of the Z-LYTE panel (Homo sapiens, UniProt Q8N4C8) (Q8N4C8 whole entry): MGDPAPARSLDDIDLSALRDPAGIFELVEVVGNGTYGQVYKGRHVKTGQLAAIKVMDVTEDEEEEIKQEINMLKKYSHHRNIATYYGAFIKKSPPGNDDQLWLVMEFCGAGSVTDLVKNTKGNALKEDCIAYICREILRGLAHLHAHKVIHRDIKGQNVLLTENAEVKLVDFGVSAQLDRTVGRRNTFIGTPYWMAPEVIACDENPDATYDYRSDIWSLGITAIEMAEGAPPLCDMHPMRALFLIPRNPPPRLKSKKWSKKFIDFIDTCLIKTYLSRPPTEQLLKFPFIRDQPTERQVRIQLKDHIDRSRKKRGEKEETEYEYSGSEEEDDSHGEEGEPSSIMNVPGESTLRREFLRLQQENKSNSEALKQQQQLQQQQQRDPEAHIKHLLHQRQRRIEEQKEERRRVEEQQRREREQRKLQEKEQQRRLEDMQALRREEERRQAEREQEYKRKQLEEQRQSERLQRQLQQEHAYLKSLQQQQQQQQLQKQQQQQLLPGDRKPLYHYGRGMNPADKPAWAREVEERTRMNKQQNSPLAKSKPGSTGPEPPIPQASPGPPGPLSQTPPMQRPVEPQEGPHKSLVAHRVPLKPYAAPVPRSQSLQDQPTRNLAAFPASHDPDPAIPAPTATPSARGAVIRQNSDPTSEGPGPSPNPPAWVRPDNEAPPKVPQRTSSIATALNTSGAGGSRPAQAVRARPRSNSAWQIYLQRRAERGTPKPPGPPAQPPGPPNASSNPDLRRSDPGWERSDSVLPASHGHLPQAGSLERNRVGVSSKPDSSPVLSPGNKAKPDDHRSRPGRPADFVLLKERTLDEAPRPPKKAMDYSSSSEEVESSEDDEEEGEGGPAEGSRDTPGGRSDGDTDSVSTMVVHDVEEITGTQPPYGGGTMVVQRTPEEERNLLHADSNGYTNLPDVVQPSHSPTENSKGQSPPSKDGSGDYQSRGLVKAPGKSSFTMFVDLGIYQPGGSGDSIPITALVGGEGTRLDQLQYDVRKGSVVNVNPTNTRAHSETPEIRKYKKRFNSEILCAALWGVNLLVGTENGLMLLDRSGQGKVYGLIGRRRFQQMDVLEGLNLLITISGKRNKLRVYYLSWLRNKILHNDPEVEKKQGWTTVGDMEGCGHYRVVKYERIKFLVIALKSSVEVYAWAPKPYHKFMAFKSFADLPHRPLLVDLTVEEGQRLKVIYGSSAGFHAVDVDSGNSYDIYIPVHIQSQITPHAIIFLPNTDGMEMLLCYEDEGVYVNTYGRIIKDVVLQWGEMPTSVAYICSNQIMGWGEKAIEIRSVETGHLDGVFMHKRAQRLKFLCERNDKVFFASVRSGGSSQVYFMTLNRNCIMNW

Question: What does the source list for CCN1CCN(c2ccc(Nc3cc(Nc4cccc5c4N(C(C)=O)CC5)ccn3)cc2)CC1 [Compound 1938]?
Answer: inhibition at 1 µM ([1]; read-out: % Inhibition Point 1): 16%; inhibition at 1 µM ([1]; read-out: % Inhibition Point 2): 17%; inhibition at 1 µM ([1]; read-out: % Inhibition mean): 16%; inhibition at 1 µM ([2]; read-out: % Inhibition Point 1): 3%; inhibition at 1 µM ([2]; read-out: % Inhibition Point 2): -4.63%; inhibition at 1 µM ([2]; read-out: % Inhibition mean): -0.814%; inhibition at 1 µM ([3]; read-out: % Inhibition Point 1): 3%; inhibition at 1 µM ([3]; read-out: % Inhibition Point 2): 3.66%; inhibition at 1 µM ([3]; read-out: % Inhibition mean): 3.32%; inhibition at 1 µM ([4]; read-out: % Inhibition Point 1): 12%; inhibition at 1 µM ([4]; read-out: % Inhibition Point 2): 14%; inhibition at 1 µM ([4]; read-out: % Inhibition mean): 13%; inhibition at 1 µM ([5]; read-out: % Inhibition Point 1): 28%; inhibition at 1 µM ([5]; read-out: % Inhibition Point 2): 31%; inhibition at 1 µM ([5]; read-out: % Inhibition mean): 30%; inhibition at 1 µM ([6]; read-out: % Inhibition Point 1): 30%; inhibition at 1 µM ([6]; read-out: % Inhibition Point 2): 29%; inhibition at 1 µM ([6]; read-out: % Inhibition mean): 30%
